Data reported in ChEMBL document CHEMBL1201862, “PubChem BioAssay data set” (2004).
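Method: 48-hour compound exposure of cells in 96-well plates, five concentrations, linear interpolation of endpoints. GI50 is the concentration that inhibits growth by half.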 Activity calls are given as the source filed them. Rule as the data show it: active = GI50 up to about 1.1 µM and inactive = higher.

Columns and labels:
Test in all cases: inhibition of tumour cell growth, NCI panel, 48 h
786-0 = tested on: 786-0
CCRF-CEM = tested on: CCRF-CEM
DU-145 = tested on: DU-145
EKVX = tested on: EKVX
HCT-116 = tested on: HCT-116
HCT-15 = tested on: HCT-15
Hs-578T = tested on: Hs-578T
MDA-N = tested on: MDA-N
Malme-3M = tested on: Malme-3M
NCI-H460 = tested on: NCI-H460
NCI-H522 = tested on: NCI-H522
NCI/ADR-RES = tested on: NCI/ADR-RES
RXF 393 = tested on: RXF 393
SF-295 = tested on: SF-295
SF-539 = tested on: SF-539
SK-MEL-28 = tested on: SK-MEL-28
SK-MEL-2 = tested on: SK-MEL-2
SNB-75 = tested on: SNB-75
T47D = tested on: T47D
M19-MEL = tested on: M19-MEL

| SMILES | GI50 (786-0) | GI50 (CCRF-CEM) | GI50 (DU-145) | GI50 (EKVX) | GI50 (HCT-116) | GI50 (HCT-15) | GI50 (Hs-578T) | GI50 (MDA-N) | GI50 (Malme-3M) | GI50 (NCI-H460) | GI50 (NCI-H522) | GI50 (NCI/ADR-RES) | GI50 (RXF 393) | GI50 (SF-295) | GI50 (SF-539) | GI50 (SK-MEL-28) | GI50 (SK-MEL-2) | GI50 (SNB-75) | GI50 (T47D) | GI50 (M19-MEL) |
| --- | --- | --- | --- | --- | --- | --- | --- | --- | --- | --- | --- | --- | --- | --- | --- | --- | --- | --- | --- | --- |
| O=C1CN2CCN(CC2)CC(=O)Nc2ccc(cc2)S(=O)(=O)c2ccc(cc2)NC(=O)CN2CCN(CC2)CC(=O)Nc2ccc(cc2)S(=O)(=O)c2ccc(cc2)N1 | 33.3 µM (inactive) | 0.31 µM (active) | 51.6 µM (inactive) | > 100 µM (inactive) | 14.8 µM (inactive) | 13.4 µM | > 100 µM (inactive) | 41.8 µM (inactive) | 15.8 µM (inactive) | 19.5 µM (inactive) | 4.71 µM (inactive) | 37.3 µM (inactive) | 55.2 µM (inactive) | > 88.7 µM (inactive) | 23.3 µM (inactive) | 48.4 µM (inactive) | > 71.1 µM (inactive) | > 100 µM (inactive) | 67.6 µM (inactive) | – |
| Cc1cccc(C)c1NC(=O)C(=O)CC(=O)c1cccc([N+](=O)[O-])c1 | > 100 µM (inactive) | > 100 µM (inactive) | – | > 100 µM (inactive) | > 100 µM (inactive) | > 100 µM | – | – | > 100 µM (inactive) | > 100 µM (inactive) | > 100 µM (inactive) | – | – | > 100 µM (inactive) | > 100 µM (inactive) | > 100 µM (inactive) | > 100 µM (inactive) | > 100 µM (inactive) | – | > 100 µM (inactive) |
| Cc1ccc2c(=O)c3c(O)c4c(cc3n(C)c2c1)OC(C)(C)C=C4 | > 10 µM (inactive) | > 10 µM (inactive) | > 10 µM (inactive) | > 10 µM (inactive) | > 10 µM (inactive) | > 10 µM | > 10 µM (inactive) | > 10 µM (inactive) | > 10 µM (inactive) | > 10 µM (inactive) | > 10 µM (inactive) | > 10 µM (inactive) | > 10 µM (inactive) | > 10 µM (inactive) | > 10 µM (inactive) | > 10 µM (inactive) | > 10 µM (inactive) | > 10 µM (inactive) | > 10 µM (inactive) | – |
| CC(=O)NC1C(OCc2ccccc2)OC(CO)C(O)C1OCC(=O)N[C@@H](C)C(=O)N[C@H](CCC(=O)NCCCNc1c2ccccc2nc2cccc([N+](=O)[O-])c12)C(N)=O (some centres not stated) | < 0.0168 µM (active) | 0.052 µM (active) | 0.0308 µM (active) | 0.0462 µM (active) | < 0.0127 µM (active) | 0.0312 µM | 0.156 µM (active) | 0.023 µM (active) | 0.0292 µM (active) | 0.0101 µM (active) | < 0.0111 µM (active) | 0.564 µM (active) | 0.0352 µM (active) | 0.15 µM (active) | 0.0298 µM (active) | 0.205 µM (active) | 0.0404 µM (active) | 0.122 µM (active) | 0.047 µM (active) | – |
| C=CCOc1ccc(C(=N/NC(=O)c2ccccc2)/N=N/c2ccccc2)cc1OC | > 100 µM (inactive) | 36.6 µM (inactive) | > 100 µM (inactive) | > 100 µM (inactive) | 67.9 µM (inactive) | 63.8 µM | 70.8 µM (inactive) | > 100 µM (inactive) | > 100 µM (inactive) | 40.6 µM (inactive) | 93.5 µM (inactive) | 84.3 µM (inactive) | > 100 µM (inactive) | > 100 µM (inactive) | > 100 µM (inactive) | > 100 µM (inactive) | > 100 µM (inactive) | > 100 µM (inactive) | 24 µM (inactive) | – |
| Cn1ncc2c(c1=O)Nc1ccccc1S2(=O)=O | 28.4 µM (inactive) | 61.1 µM (inactive) | – | > 100 µM (inactive) | 50 µM (inactive) | > 100 µM | – | – | > 100 µM (inactive) | > 100 µM (inactive) | > 100 µM (inactive) | – | – | > 100 µM (inactive) | 21.6 µM (inactive) | > 100 µM (inactive) | > 100 µM (inactive) | > 100 µM (inactive) | – | > 100 µM (inactive) |
| O=c1[nH]nc(-c2ccccc2)c2[nH]c3c(c12)Cc1ccccc1-3 | 4.8 µM (inactive) | 3.92 µM (inactive) | 10.4 µM (inactive) | 6.79 µM (inactive) | 1.82 µM (inactive) | 0.374 µM | 5.46 µM (inactive) | 0.38 µM (active) | 1.08 µM (active) | 2.11 µM (inactive) | 0.295 µM (active) | 2.14 µM (inactive) | 6.19 µM (inactive) | 1.97 µM (inactive) | 2.34 µM (inactive) | 6.01 µM (inactive) | 1.43 µM (inactive) | 3.28 µM (inactive) | > 100 µM (inactive) | – |
| C=C(C)[C@@H]1CC[C@]2(C(=O)O)CC[C@]3(C)[C@H](CC[C@@H]4[C@@]5(C)CC[C@H](C(=O)/C=C/c6ccc(O)cc6)C(C)(C)[C@@H]5CC[C@]43C)[C@@H]12 | 4.92 µM (inactive) | 2.39 µM (inactive) | 5.73 µM (inactive) | 2.47 µM (inactive) | 2.51 µM (inactive) | 3.45 µM | 4.75 µM (inactive) | 4.72 µM (inactive) | 13.5 µM (inactive) | 2.73 µM (inactive) | 3.41 µM (inactive) | 3.22 µM (inactive) | 6.41 µM (inactive) | 6.15 µM (inactive) | 3.01 µM (inactive) | 11.9 µM (inactive) | 16.3 µM (inactive) | > 10 µM (inactive) | 4.58 µM (inactive) | – |
